Experimental data: ChEMBL document CHEMBL1177805, “AMP-activated protein kinase (AMPK) activators from Myristica fragrans (nutmeg) and their anti-obesity effect” (Bioorg Med Chem Lett, 2010)
Activity calls are given as the source filed them. The rule behind the calls is not given here.

Biological target: 5'-AMP-activated protein kinase catalytic subunit alpha-2 (Mus musculus) (UniProt Q8BRK8)
Test: Activation of AMPK in mouse […] cells at 5 uM by Western blotting
Type: cell-based

Chain of 5'-AMP-activated protein kinase catalytic subunit alpha-2 (Mus musculus) (Q8BRK8 whole entry): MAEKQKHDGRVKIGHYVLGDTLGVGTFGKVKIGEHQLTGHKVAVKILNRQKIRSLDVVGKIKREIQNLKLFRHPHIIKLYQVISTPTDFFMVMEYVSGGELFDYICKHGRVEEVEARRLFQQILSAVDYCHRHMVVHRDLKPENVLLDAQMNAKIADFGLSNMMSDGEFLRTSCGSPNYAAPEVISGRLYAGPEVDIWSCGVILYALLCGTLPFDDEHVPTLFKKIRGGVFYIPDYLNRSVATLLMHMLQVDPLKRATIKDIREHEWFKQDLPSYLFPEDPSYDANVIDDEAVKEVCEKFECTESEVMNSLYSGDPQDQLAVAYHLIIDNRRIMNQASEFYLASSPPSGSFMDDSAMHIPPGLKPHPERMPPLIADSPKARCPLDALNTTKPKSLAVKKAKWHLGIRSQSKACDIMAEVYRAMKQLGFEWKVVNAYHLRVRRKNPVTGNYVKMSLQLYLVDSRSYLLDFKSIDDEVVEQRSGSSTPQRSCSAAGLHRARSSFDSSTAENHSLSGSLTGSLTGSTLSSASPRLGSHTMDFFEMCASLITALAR

| Activity | SMILES |
| --- | --- |
| Active | COc1cc([C@H]2O[C@@H](c3ccc(O)c(OC)c3)[C@H](C)[C@@H]2C)ccc1O |
| Active | COc1cc([C@H]2O[C@@H](c3ccc(O)c(OC)c3)[C@@H](C)[C@H]2C)ccc1O |
